From ChEMBL document CHEMBL2321799 (J Med Chem, 2013)

Experiments:
Ephrin type-A receptor 5 = Ephrin type-A receptor 5 (Homo sapiens, UniProt P54756); assay: Displacement of ephrin-A1-Fc from EphA5 receptor Fc ectodomain (unknown origin) after 1 hr by ELISA
Ephrin type-B receptor 1 = target: T1, Ephrin type-B receptor 1 (Homo sapiens, UniProt P54762); assay: Displacement of ephrin-B1-Fc from EphB1 receptor Fc ectodomain (unknown origin) after 1 hr by ELISA
T1 sequence (P54762 whole entry): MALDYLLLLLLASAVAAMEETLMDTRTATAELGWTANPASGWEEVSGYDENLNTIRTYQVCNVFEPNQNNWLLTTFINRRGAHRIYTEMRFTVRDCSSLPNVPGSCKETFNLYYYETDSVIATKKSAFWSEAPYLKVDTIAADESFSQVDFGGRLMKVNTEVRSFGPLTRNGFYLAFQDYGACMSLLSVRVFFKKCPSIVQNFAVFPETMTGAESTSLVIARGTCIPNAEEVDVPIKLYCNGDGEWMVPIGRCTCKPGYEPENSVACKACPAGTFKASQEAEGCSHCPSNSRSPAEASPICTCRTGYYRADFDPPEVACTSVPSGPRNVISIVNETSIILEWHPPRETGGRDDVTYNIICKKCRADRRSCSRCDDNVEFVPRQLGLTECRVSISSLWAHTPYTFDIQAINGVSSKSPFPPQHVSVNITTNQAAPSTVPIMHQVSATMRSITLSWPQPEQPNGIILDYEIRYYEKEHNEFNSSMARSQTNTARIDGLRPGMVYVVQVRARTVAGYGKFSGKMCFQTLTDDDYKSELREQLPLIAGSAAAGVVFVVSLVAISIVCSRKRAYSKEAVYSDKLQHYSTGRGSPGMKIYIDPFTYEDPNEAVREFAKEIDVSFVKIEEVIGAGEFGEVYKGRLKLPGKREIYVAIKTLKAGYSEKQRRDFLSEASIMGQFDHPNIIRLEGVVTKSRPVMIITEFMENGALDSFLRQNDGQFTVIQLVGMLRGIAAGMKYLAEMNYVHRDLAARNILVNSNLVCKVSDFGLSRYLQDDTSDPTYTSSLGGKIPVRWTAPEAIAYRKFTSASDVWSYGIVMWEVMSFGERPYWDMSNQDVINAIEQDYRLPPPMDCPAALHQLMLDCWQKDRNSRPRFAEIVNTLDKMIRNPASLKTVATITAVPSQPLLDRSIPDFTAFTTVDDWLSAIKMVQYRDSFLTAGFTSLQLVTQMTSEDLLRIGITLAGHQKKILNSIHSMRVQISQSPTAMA

Ephrin type-A receptor 6 = target: T2, Ephrin type-A receptor 6 (Homo sapiens, UniProt Q9UF33); assay: Displacement of ephrin-A1-Fc from EphA6 receptor Fc ectodomain (unknown origin) after 1 hr by ELISA
T2 sequence (Q9UF33 whole entry): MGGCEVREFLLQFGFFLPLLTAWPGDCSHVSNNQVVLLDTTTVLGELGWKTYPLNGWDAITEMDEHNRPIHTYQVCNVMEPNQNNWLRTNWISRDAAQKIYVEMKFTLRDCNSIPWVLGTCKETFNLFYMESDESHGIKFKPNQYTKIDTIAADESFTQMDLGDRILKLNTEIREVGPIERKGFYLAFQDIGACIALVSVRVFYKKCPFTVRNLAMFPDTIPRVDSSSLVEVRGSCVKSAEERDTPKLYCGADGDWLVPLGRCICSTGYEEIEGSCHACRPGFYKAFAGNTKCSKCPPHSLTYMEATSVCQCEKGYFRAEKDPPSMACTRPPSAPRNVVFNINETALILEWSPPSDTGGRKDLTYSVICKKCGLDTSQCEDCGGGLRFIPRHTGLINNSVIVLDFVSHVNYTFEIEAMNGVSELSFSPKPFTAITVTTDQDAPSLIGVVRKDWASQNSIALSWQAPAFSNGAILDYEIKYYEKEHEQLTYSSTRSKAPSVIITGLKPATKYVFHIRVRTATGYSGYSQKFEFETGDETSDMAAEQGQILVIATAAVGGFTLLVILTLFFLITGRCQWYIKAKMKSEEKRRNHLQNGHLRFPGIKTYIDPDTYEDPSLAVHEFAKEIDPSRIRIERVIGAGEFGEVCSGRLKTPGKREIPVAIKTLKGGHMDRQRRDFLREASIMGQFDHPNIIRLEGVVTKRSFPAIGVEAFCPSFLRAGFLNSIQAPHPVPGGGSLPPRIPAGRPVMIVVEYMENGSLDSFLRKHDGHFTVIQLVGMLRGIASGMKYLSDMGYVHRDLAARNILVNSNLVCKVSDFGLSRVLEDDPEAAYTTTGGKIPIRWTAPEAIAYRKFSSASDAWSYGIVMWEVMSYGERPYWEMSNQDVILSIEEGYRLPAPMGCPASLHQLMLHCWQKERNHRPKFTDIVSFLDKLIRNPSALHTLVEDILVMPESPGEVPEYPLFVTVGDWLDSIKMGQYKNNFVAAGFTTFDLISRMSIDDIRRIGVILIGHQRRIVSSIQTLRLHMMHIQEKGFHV

Ephrin type-B receptor 4 = target: T3, Ephrin type-B receptor 4 (Homo sapiens, UniProt P54760); assay: Displacement of ephrin-B1-Fc from EphB4 receptor Fc ectodomain (unknown origin) after 1 hr by ELISA
T3 sequence (P54760 whole entry): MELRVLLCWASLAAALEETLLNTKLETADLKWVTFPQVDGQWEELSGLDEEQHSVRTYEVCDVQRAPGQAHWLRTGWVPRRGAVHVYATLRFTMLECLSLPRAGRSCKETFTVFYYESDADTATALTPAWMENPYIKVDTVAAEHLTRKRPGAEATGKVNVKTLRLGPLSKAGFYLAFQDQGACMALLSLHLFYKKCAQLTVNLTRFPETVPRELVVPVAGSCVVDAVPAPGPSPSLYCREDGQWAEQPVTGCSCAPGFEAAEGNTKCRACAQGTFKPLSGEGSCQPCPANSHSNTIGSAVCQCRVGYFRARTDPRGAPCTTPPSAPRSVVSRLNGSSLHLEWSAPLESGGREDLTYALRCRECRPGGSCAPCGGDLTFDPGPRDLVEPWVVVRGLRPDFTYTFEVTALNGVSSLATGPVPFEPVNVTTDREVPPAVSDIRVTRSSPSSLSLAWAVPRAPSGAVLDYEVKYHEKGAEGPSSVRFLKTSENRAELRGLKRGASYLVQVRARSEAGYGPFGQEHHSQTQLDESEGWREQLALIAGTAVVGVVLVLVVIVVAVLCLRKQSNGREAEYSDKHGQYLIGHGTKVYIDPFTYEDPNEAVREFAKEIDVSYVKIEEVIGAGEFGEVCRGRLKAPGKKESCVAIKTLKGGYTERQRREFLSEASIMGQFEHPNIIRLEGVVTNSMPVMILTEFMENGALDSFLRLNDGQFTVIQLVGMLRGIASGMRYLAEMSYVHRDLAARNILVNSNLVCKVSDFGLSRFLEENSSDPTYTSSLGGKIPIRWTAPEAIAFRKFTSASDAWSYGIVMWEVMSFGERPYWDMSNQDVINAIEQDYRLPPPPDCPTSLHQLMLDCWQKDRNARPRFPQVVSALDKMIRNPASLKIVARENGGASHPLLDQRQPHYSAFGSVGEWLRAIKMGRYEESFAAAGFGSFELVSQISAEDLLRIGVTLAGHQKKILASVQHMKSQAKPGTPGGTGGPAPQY

Ephrin type-A receptor 4 = Ephrin type-A receptor 4 (Homo sapiens, UniProt P54764); assay: Displacement of ephrin-A1-Fc from EphA4 receptor Fc ectodomain (unknown origin) after 1 hr by ELISA
Ephrin type-A receptor 4, sequence (P54764 whole entry, the tested form may be a part): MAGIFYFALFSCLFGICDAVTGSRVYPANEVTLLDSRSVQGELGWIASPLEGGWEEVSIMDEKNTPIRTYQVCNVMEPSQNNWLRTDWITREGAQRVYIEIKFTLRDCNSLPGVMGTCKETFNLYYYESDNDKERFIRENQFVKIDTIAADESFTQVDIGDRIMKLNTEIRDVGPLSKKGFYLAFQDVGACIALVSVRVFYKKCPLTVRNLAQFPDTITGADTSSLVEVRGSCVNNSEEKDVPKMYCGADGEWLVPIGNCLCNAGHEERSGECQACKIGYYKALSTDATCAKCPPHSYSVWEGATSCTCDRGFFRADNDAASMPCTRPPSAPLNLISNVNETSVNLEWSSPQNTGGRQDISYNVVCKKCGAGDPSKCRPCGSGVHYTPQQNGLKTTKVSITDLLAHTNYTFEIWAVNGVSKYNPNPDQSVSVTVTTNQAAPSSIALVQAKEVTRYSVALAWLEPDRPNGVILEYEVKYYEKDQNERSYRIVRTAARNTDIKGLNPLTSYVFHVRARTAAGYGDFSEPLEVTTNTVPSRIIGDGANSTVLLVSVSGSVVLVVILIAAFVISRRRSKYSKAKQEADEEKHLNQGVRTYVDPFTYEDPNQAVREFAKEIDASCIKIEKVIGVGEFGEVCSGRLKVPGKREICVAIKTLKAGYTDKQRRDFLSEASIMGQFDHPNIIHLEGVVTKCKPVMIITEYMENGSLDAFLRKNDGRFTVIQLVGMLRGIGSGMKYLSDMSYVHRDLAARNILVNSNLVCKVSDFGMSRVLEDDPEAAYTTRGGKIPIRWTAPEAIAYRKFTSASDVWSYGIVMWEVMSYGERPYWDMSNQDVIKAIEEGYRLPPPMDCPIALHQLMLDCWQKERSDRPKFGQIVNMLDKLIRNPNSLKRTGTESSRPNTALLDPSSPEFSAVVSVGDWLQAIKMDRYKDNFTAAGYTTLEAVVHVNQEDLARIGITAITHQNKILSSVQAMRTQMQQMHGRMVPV

Ephrin type-A receptor 7 = Ephrin type-A receptor 7 (Homo sapiens, UniProt Q15375); assay: Displacement of ephrin-A1-Fc from EphA7 receptor Fc ectodomain (unknown origin) after 1 hr by ELISA
Ephrin type-A receptor 7, sequence (Q15375 whole entry, the tested form may be a part): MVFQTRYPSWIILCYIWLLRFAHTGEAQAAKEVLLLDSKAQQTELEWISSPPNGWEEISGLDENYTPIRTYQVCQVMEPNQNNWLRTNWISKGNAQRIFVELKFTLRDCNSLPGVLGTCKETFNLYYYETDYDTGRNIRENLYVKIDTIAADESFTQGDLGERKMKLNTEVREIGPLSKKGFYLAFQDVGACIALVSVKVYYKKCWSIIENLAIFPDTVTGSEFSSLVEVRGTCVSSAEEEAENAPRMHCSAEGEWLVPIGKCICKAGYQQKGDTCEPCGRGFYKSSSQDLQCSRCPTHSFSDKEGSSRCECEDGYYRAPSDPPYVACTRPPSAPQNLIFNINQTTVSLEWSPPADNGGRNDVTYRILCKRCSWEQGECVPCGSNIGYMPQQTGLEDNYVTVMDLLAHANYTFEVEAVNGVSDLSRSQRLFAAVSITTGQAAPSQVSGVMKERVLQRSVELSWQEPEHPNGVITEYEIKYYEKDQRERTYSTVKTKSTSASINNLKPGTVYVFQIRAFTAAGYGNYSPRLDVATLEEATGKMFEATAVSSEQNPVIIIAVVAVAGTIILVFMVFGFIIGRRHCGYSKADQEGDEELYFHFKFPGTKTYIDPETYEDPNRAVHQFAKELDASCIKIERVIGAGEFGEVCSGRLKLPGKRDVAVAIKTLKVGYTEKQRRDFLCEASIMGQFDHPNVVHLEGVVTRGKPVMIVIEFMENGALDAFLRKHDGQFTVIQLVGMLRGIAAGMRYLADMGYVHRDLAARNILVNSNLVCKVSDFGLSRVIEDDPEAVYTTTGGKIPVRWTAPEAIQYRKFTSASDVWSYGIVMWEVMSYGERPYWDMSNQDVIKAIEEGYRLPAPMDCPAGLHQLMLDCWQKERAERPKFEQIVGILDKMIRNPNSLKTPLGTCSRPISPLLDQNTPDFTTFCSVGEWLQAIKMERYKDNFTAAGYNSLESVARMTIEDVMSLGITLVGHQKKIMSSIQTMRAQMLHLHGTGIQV

Ephrin type-B receptor 6 = target: T4, Ephrin type-B receptor 6 (Homo sapiens, UniProt O15197); assay: Displacement of ephrin-B1-Fc from EphB6 receptor Fc ectodomain (unknown origin) after 1 hr by ELISA
T4 sequence (O15197 whole entry): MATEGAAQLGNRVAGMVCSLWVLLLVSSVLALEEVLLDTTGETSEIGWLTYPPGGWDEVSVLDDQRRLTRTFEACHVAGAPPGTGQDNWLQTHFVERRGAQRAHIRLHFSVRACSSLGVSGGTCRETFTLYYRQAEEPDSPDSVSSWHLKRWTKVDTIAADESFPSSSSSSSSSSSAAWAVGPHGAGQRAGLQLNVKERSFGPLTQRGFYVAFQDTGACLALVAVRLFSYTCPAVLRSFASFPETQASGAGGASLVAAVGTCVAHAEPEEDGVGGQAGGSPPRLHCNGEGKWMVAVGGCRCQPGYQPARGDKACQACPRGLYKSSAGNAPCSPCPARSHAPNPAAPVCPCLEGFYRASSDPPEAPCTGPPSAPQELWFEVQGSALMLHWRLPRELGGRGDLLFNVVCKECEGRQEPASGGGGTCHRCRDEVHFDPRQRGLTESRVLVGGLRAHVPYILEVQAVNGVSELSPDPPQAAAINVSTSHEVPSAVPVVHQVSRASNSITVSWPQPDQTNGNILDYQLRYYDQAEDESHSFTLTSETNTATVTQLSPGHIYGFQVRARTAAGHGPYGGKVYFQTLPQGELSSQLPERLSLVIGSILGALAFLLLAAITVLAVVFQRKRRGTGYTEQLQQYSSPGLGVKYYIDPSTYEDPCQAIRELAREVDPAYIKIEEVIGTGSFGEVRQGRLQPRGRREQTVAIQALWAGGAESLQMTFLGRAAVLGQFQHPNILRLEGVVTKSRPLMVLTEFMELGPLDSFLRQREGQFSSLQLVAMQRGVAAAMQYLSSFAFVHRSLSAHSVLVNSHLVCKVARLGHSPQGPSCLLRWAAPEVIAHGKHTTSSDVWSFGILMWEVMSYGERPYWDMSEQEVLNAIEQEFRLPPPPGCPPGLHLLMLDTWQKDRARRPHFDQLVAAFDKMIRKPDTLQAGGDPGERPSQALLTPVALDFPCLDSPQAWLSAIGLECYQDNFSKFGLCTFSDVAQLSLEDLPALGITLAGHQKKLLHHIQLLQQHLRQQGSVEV

Ephrin type-A receptor 8 = target: T5, Ephrin type-A receptor 8 (Homo sapiens, UniProt P29322); assay: Displacement of ephrin-A1-Fc from EphA8 receptor Fc ectodomain (unknown origin) after 1 hr by ELISA
T5 sequence (P29322 whole entry): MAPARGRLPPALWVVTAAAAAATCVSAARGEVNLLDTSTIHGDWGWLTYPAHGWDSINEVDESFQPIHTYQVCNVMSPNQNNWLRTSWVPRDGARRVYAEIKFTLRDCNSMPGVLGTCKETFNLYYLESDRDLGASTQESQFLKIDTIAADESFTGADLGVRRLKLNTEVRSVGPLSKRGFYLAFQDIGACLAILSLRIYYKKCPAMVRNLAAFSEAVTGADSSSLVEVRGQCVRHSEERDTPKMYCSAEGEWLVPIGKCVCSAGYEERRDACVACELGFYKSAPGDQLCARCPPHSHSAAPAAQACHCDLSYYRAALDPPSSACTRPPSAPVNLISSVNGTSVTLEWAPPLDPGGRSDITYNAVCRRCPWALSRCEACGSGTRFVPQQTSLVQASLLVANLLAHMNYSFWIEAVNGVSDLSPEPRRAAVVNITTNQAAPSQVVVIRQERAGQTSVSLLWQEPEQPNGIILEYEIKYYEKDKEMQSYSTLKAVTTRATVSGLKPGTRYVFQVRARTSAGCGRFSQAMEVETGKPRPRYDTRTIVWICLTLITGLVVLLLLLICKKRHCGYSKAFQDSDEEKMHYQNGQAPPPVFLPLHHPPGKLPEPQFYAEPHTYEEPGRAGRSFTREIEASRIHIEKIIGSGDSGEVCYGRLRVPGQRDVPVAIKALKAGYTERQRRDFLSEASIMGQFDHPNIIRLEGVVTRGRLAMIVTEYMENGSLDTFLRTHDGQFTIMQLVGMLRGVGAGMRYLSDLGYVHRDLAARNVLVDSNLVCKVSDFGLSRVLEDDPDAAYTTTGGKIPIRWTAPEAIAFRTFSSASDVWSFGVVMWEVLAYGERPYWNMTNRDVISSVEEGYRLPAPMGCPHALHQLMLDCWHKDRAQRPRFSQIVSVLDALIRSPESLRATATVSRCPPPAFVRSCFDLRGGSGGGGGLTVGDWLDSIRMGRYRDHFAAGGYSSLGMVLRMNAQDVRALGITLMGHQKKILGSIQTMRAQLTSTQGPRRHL

PC-3 = assay: Cytotoxicity against human PC3 cells assessed as LDH release at 25 to 100 uM after 2 hrs by ELISA; format: cell-based; conditions: pc-3, 2 h
Ephrin type-A receptor 2 [1] = target: T6, Ephrin type-A receptor 2 (Homo sapiens, UniProt P29317); assay: Inhibition of ephrin-A1-Fc binding to EphA2-Fc receptor (unknown origin) after 1 hr by ELISA
T6 sequence (P29317 whole entry): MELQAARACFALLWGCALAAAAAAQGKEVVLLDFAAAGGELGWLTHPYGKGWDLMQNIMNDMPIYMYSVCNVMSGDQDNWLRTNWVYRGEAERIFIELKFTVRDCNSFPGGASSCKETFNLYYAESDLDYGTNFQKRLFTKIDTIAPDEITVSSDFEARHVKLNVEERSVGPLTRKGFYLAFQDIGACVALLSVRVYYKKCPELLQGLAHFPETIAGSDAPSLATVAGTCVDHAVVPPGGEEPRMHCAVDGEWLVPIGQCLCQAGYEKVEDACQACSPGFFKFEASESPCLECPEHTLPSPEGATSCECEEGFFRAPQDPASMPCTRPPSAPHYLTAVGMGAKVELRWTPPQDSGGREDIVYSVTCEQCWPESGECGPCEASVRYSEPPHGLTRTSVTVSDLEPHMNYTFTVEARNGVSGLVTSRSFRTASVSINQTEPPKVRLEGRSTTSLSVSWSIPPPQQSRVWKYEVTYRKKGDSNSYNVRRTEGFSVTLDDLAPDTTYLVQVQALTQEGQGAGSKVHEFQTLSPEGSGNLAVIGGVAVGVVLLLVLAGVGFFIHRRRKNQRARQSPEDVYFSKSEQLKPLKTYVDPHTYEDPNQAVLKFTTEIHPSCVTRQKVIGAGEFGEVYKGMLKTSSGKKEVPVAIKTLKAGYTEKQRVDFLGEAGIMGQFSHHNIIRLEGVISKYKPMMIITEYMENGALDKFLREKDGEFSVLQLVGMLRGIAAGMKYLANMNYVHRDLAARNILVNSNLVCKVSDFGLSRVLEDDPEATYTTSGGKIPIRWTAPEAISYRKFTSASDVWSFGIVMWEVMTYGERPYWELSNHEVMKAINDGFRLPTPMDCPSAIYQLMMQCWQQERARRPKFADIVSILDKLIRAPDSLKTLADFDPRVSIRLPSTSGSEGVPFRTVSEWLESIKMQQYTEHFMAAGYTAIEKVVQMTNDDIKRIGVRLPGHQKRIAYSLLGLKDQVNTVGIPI

Ephrin type-A receptor 2 [2] = target: T6, Ephrin type-A receptor 2; assay: Antagonist activity at EphA2 in human PC3 cells assessed as inhibition of ephrin-A1-Fc-stimulated EphA2 phosphorylation pretreated for 20 mins by sandwich ELISA; format: cell-based, PC-3

Ephrin type-A receptor 5, sequence (P54756 whole entry, the tested form may be a part): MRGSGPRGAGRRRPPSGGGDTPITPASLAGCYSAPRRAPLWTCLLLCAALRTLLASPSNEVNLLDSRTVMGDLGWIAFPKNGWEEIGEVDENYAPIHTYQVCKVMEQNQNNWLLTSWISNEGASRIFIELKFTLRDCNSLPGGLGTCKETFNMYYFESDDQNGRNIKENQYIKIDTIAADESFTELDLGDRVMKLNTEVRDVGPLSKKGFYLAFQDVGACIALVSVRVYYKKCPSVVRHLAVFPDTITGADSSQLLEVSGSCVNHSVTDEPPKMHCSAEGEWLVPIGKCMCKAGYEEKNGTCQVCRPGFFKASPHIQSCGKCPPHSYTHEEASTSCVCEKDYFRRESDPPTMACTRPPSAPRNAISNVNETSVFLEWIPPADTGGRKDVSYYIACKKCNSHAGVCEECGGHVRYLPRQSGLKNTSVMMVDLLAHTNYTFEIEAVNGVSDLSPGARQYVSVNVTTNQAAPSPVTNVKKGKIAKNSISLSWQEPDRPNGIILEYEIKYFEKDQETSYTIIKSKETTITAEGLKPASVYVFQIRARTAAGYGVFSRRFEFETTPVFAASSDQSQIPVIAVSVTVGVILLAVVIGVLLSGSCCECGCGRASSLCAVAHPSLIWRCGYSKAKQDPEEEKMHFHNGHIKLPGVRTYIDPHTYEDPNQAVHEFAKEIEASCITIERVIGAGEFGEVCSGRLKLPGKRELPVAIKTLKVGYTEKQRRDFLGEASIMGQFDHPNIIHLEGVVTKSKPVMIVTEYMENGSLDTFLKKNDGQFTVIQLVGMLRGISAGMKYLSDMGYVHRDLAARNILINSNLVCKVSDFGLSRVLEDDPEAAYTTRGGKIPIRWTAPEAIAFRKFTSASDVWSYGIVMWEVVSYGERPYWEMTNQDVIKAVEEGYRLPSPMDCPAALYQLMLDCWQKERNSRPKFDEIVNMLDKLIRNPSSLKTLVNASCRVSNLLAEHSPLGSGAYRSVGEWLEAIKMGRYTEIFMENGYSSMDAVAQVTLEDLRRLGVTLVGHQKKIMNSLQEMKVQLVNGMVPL

C[C@H](CCC(=O)N[C@@H](Cc1c[nH]c2ccccc12)C(=O)O)[C@H]1CC[C@H]2[C@@H]3CC[C@@H]4C[C@H](O)CC[C@]4(C)[C@H]3CC[C@]12C
IC50 (Ephrin type-A receptor 5): 2.4 µM | IC50 (Ephrin type-B receptor 1): 3.8 µM | IC50 (Ephrin type-A receptor 6): 1.5 µM | IC50 (Ephrin type-B receptor 4): 4.4 µM | IC50 (Ephrin type-A receptor 4): 2.7 µM | IC50 (Ephrin type-A receptor 7): 2.1 µM | IC50 (Ephrin type-B receptor 6): 5.8 µM | IC50 (Ephrin type-A receptor 8): 1.5 µM | Activity (PC-3): Non-toxic

C[C@H](CCC(=O)N[C@@H](CC(=O)O)C(=O)O)[C@H]1CC[C@H]2[C@@H]3CC[C@@H]4C[C@H](O)CC[C@]4(C)[C@H]3CC[C@]12C
IC50 (Ephrin type-A receptor 2 [1]): > 316 µM

C[C@H](CCC(=O)N[C@H](CC(N)=O)C(=O)O)[C@H]1CC[C@H]2[C@@H]3CC[C@@H]4C[C@H](O)CC[C@]4(C)[C@H]3CC[C@]12C
IC50 (Ephrin type-A receptor 2 [1]): > 316 µM

C[C@H](CCC(=O)N[C@@H](CC(N)=O)C(=O)O)[C@H]1CC[C@H]2[C@@H]3CC[C@@H]4C[C@H](O)CC[C@]4(C)[C@H]3CC[C@]12C
IC50 (Ephrin type-A receptor 2 [1]): > 316 µM

C[C@H](CCC(=O)NCC(=O)O)[C@H]1CC[C@H]2[C@@H]3CC[C@@H]4C[C@H](O)CC[C@]4(C)[C@H]3CC[C@]12C [LITHOGLYCOCHOLATE]
IC50 (Ephrin type-A receptor 2 [2]): 138 µM | IC50 (Ephrin type-A receptor 2 [1]): 49 µM

C[C@H](CCC(=O)N[C@H](CC(=O)O)C(=O)O)[C@H]1CC[C@H]2[C@@H]3CC[C@@H]4C[C@H](O)CC[C@]4(C)[C@H]3CC[C@]12C
IC50 (Ephrin type-A receptor 2 [1]): > 316 µM

CC(=O)CNC(=O)CC[C@@H](C)[C@H]1CC[C@H]2[C@@H]3CC[C@@H]4C[C@H](O)CC[C@]4(C)[C@H]3CC[C@]12C
IC50 (Ephrin type-A receptor 2 [1]): > 316 µM
